From PubChem BioAssay (NCI) come the findings set out here.

Some test systems named below: IGROV1 ovarian; NCI-H226 lung; TK-10 renal; NCI-H23 lung; RPMI-8226 leukemia; SR leukemia; NCI-H460 lung; COLO 205 colon; SK-OV-3 ovarian; HCC-2998 colon.
Common to all, as to experiment: DTP human tumour cell line panel, 48 h

Values joined by “and” are separate entries in the source; they are usually repeats but may differ in a detail not shown here. Equal entries are not always repeated.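 Method: 48-hour compound exposure of cells in 96-well plates, five concentrations, linear interpolation of endpoints. At the GI50, growth is halved. Definition used: TGI = concentration required for complete inhibition of growth.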 Bounds are passed on as bounds.

Take `COc1ccccc1NC(=O)CC(=O)n1nc(C)c(N=Nc2ccccc2Cl)c1C`: the TGI (commonly the concentration giving total growth inhibition) with IGROV1 ovarian was more than 100 µM; with NCI-H226 lung it was more than 100 µM; with TK-10 renal, more than 100 µM; with NCI-H23 lung it was more than 44.7 µM; with RPMI-8226 leukemia, more than 100 µM; in the test with SR leukemia, 97.9 µM. The TGI is more than 100 µM with NCI-H460 lung, more than 100 µM with COLO 205 colon, 98.6 µM in the test with SK-OV-3 ovarian and more than 100 µM in the test with HCC-2998 colon.

Consider `Cc1ccc(-c2nc(/C=N/Nc3cc(C)nc4ccc(Br)cc34)c(C)o2)cc1`, for which the GI50 (in general, the concentration giving 50% growth inhibition) in the test on IGROV1 ovarian is 1.84 µM; in the test with NCI-H226 lung, 15 µM; with TK-10 renal it was 1.82 µM; with NCI-H23 lung, 2.09 µM; in the test on RPMI-8226 leukemia, 2.05 µM; in the test with SR leukemia it was 2.67 µM. Further, the GI50 is 1.94 µM in the test on NCI-H460 lung, 2.03 µM with COLO 205 colon, 1.8 µM in the test with SK-OV-3 ovarian and 1.74 µM with HCC-2998 colon. In addition, the TGI with IGROV1 ovarian was 3.52 µM; with NCI-H226 lung, 42.1 µM; with TK-10 renal, 3.29 µM; with NCI-H23 lung it was 4.75 µM; in the test with RPMI-8226 leukemia, 4.71 µM; in the test with SR leukemia, 7.71 µM. The TGI amounted to 3.73 µM in the test on NCI-H460 lung, 3.97 µM in the test with COLO 205 colon, 3.29 µM with SK-OV-3 ovarian and 3.28 µM with HCC-2998 colon.

Take `CCc1cccc(NC(=O)Nc2ccc(Oc3ccc4nc(NC(=O)OC)[nH]c4c3)cc2)c1`: the GI50 is 5.37 µM with IGROV1 ovarian; 5.03 µM in the test with NCI-H226 lung; 6.61 µM in the test on TK-10 renal; 5.59 µM in the test with NCI-H23 lung; 12.5 µM in the test on RPMI-8226 leukemia; 0.149 µM in the test on SR leukemia. In addition, the GI50 in the test with NCI-H460 lung was 3.4 µM; in the test on COLO 205 colon, 6.8 µM; in the test on SK-OV-3 ovarian, 4.99 µM; in the test with HCC-2998 colon, 11.7 µM. The TGI with IGROV1 ovarian was more than 25 µM; in the test on NCI-H226 lung it was more than 20.7 µM; in the test on TK-10 renal, more than 19.8 µM; with NCI-H23 lung, more than 20.8 µM; in the test on RPMI-8226 leukemia it was more than 25 µM; in the test with SR leukemia, more than 25 µM. Besides, the TGI was 12.4 µM in the test with NCI-H460 lung, more than 17.9 µM with COLO 205 colon, 11.5 µM with SK-OV-3 ovarian and more than 25 µM with HCC-2998 colon.

With `O=C(Nc1cn[nH]c1-c1nc2ccc(CN3CCOCC3)cc2[nH]1)NC1CC1`, the GI50 with IGROV1 ovarian is 2.75 µM and 2.67 µM; with NCI-H226 lung, 0.153 µM and 0.312 µM; with TK-10 renal, 1.24 µM and 5.07 µM; with NCI-H23 lung it was 1.45 µM and 7.06 µM; in the test with RPMI-8226 leukemia, 7.05 µM and > 10 µM; in the test on SR leukemia, 0.0277 µM and 0.0539 µM. Further, the GI50 in the test with NCI-H460 lung is 1.78 µM and 7.25 µM; in the test on COLO 205 colon, 0.0376 µM and 0.0752 µM; in the test with SK-OV-3 ovarian, 0.375 µM and 0.299 µM; in the test on HCC-2998 colon it was 1.76 µM and > 10 µM. Further, the TGI in the test with IGROV1 ovarian was 19.8 µM and > 10 µM; with TK-10 renal, 6 µM and > 10 µM; in the test with NCI-H23 lung, 5.16 µM and > 10 µM; in the test with RPMI-8226 leukemia, 28.3 µM and > 10 µM; with SR leukemia, 4.15 µM and 5.52 µM; with NCI-H460 lung, 10.5 µM and > 10 µM. Also, the TGI is 1.75 µM and 3.81 µM in the test on COLO 205 colon; 3.52 µM and 8.08 µM in the test on SK-OV-3 ovarian; 3.81 µM and > 10 µM in the test on HCC-2998 colon.

Regarding `Cc1[nH]c2ccccc2c1C1=NO/C(=N\O)C(c2c(C)[nH]c3ccccc23)C1` (centres undefined), the TGI in the test with IGROV1 ovarian was more than 100 µM; in the test on NCI-H226 lung it was more than 100 µM; with TK-10 renal it was more than 100 µM; in the test on NCI-H23 lung, more than 100 µM; in the test with RPMI-8226 leukemia, more than 100 µM; in the test with SR leukemia it was more than 78.7 µM. In addition, the TGI in the test with NCI-H460 lung was more than 67.6 µM; in the test with COLO 205 colon, 41 µM; in the test on SK-OV-3 ovarian it was more than 100 µM; in the test with HCC-2998 colon, more than 100 µM.

Turning to `O=c1oc2ccc(Cl)cc2c(=O)n1-c1ccc(F)cc1F`, the GI50 in the test on IGROV1 ovarian is 1.74 µM; in the test on NCI-H226 lung, 1.41 µM; in the test on TK-10 renal it was 5.55 µM; with NCI-H23 lung, 1.87 µM; with RPMI-8226 leukemia it was 0.994 µM; in the test with SR leukemia it was 1.04 µM. For the same compound, the GI50 in the test with NCI-H460 lung was 2.2 µM; with COLO 205 colon, 7.92 µM; with SK-OV-3 ovarian, 1.12 µM; in the test on HCC-2998 colon it was 2.89 µM. The TGI in the test with IGROV1 ovarian was more than 100 µM; with NCI-H226 lung, 5.87 µM; with TK-10 renal, 68.2 µM; in the test with NCI-H23 lung, 7.24 µM; with RPMI-8226 leukemia, 4.18 µM; in the test on SR leukemia it was 9.75 µM. Moreover, the TGI with NCI-H460 lung is 11.5 µM; in the test on COLO 205 colon it was 23.9 µM; with SK-OV-3 ovarian it was 5.43 µM; in the test on HCC-2998 colon, 8.72 µM.

Regarding `COc1ccc2nc3c(cc2c1)C(=O)CC(c1ccccc1)C3` (centres undefined), the GI50 with IGROV1 ovarian was 2.32 µM; in the test with NCI-H226 lung, 2.53 µM; in the test with TK-10 renal, more than 100 µM; with NCI-H23 lung it was 5.4 µM; in the test with RPMI-8226 leukemia, 3.65 µM; in the test on SR leukemia it was 0.379 µM. Further, the GI50 is 1.44 µM in the test with NCI-H460 lung, 0.732 µM in the test with COLO 205 colon, 2.09 µM in the test with SK-OV-3 ovarian and 15.9 µM with HCC-2998 colon. In addition, the TGI in the test on IGROV1 ovarian, in the test on NCI-H226 lung, in the test with TK-10 renal, in the test with NCI-H23 lung, with RPMI-8226 leukemia and in the test with SR leukemia was more than 100 µM in each case. The TGI in the test with NCI-H460 lung, in the test with COLO 205 colon, in the test on SK-OV-3 ovarian and in the test on HCC-2998 colon was more than 100 µM each time.

`Cc1ccc2[nH]c(O)c(N=Nc3ccccc3[N+](=O)[O-])c2c1`: the TGI in the test with IGROV1 ovarian is 20 µM; in the test with NCI-H226 lung, 47.5 µM; in the test with TK-10 renal, 64.5 µM; in the test on NCI-H23 lung it was 77.1 µM; in the test on RPMI-8226 leukemia, more than 100 µM; with SR leukemia it was 32.6 µM. The TGI in the test on NCI-H460 lung is more than 100 µM; in the test with COLO 205 colon, more than 100 µM; in the test on SK-OV-3 ovarian it was 14.2 µM; in the test with HCC-2998 colon it was more than 100 µM.

Consider `COC(=O)C1=C(C(=O)ON)[C@@H]2C=C[C@@]1([C@@H](Cc1ccccc1)Nc1ccccc1)O2`, for which the GI50 in the test with IGROV1 ovarian is 2.03 µM; with NCI-H226 lung it was 14.5 µM; in the test on TK-10 renal, 1.7 µM; in the test with NCI-H23 lung it was 14.1 µM; in the test with RPMI-8226 leukemia, 2.13 µM; with SR leukemia, 2.02 µM. For the same compound, the GI50 was 16.6 µM in the test with NCI-H460 lung, 1.77 µM in the test with COLO 205 colon, 15.6 µM with SK-OV-3 ovarian and 17.2 µM with HCC-2998 colon. The TGI in the test with IGROV1 ovarian was 4.01 µM; in the test on NCI-H226 lung, 28.8 µM; in the test on TK-10 renal, 3.08 µM; in the test with NCI-H23 lung it was 28.9 µM; with RPMI-8226 leukemia, 5.32 µM; in the test with SR leukemia, 10.4 µM. The TGI in the test on NCI-H460 lung worked out at 32.4 µM; in the test on COLO 205 colon, 3.57 µM; with SK-OV-3 ovarian, 29.2 µM; in the test with HCC-2998 colon, 32.5 µM.
